In patent US7008953B2, “3, 5 Disubstituted indazole compounds, pharmaceutical compositions, and methods for mediating or inhibiting cell proliferation” (Agouron Pharmaceuticals, Inc., priority 2003, dated 2006):

Legend:
Format in all cases: biochemical
CDK2/Cyclin A = target: T1, CDK2/Cyclin A (Homo sapiens, UniProt P24941); assay: Inhibition of CDK2/Cyclin A retinoblastoma kinase activity (apparent Ki); details: Rb fragment substrate, 25 μM ATP
T1 construct: made in house; host or cells: CDK2: insect cells (baculovirus); cyclin A: E. coli
Description: Cyclin-dependent kinase activity was measured by quantifying the enzyme-catalyzed, time-dependent incorporation of radioactive phosphate from [^32P]ATP or [^33P]ATP into a protein substrate. Unless noted otherwise, assays were performed in 96-well plates in a total volume of 50 μL, in the presence of 10 mM HEPES (N-[2-hydroxyethyl]piperazine-N′-[2-ethanesulfonic acid]) (pH 7.4), 10 mM MgCl2, 25 μM adenosine triphosphate (ATP), 1 mg/mL ovalbumin, 5 μg/mL leupeptin, 1 mM dithiothreitol, 10 mM beta-glycerophosphate, 0.1 mM sodium vanadate, 1 mM sodium fluoride, 2.5 mM ethylene glycol-bis(β-aminoethyl ethKer)-N,N,N′N′-tetraacetic acid (EGTA), 2% (v/v) dimethylsulfoxide, and 0.03–0.4 μCi [^32/33P]ATP per reaction. Reactions were initiated with enzyme, incubated at 30° C., and terminated after 20 minutes by the addition of ethylenediaminetetraacetic acid (EDTA) to 250 mM. The phosphorylated substrate was then captured on a nitrocellulose or phosphocellulose membrane using a 96-well filtration manifold, and unincorporated radioactivity was removed by repeated washing with 0.85% phosphoric acid. Radioactivity was quantified by exposing the dried membranes to a phosphorimager.
Apparent Ki values were measured by assaying enzyme activity in the presence of different inhibitor compound concentrations and subtracting the background radioactivity measured in the absence of enzyme. Inhibition data were fit to an equation for competitive inhibition using Kaleidagraph (Synergy Software), or were fit to an equation for competitive tight-binding inhibition using the software KineTic (BioKin, Ltd.).
CDK2 was purified using published methodology (Rosenblatt et al., “Purification and Crystallization of Human Cyclin-dependent Kinase 2,” J. Mol. Biol., vol. 230, 1993, pp. 1317–1319) from insect cells that had been infected with a baculovirus expression vector. […] A complex of CDK2 and proteolyzed cyclin A was prepared and purified by gel filtration. The substrate for this assay was the same Rb substrate fragment used for the CDK4 assays, and the methodology of the CDK2/cyclin A and the CDK4/cyclin D3 assays was essentially the same, except that CDK2 was present at 150 nM or 5 nM. Ki values were measured as described above.

CDK2/A = CDK2/A (Homo sapiens, UniProt P24941); assay: Panel of protein kinases: CDK2/A; details: method of Davies et al.
Description: (§1) The compounds of the present invention were screened against a large panel of protein kinase to determine inhibition activity for CDK as against a variety of protein kinases. The assay was conducted using methods and materials described by Davies, S et al. Specificity and Mechanism of Action of Some Commonly Used Protein Kinase Inhibitors, Biochem J. 351, 95–105 (2000), the contents of which are herein incorporated by reference. The compounds were screened against a panel of protein kinases which include AMP-activiated protein kinase (AMPK), checkpoint kinase (CHK1), casein kinases 1 and 2 (CK1 and CK2), cytoplasmic tyrosine kinase (CSK), dual serine/threonine/tyrosine kinase (DYRK1A), glycogen synthase kinase 3 (GSK3B), c-Jun N-terminal kinase (JNK), lymphocyte kinase (LCK), mitogen-activated protein kinases 2, K-1a, K2 (MAPK2, MAPKAP-K1a, and MAPKAP-K2), MAPK kinase (MKK1, also called MEK), mitogen and stress-activated protein kinase 1 (MSK1), never-in-mitosis kinase 6 (NEK6), p70 ribosomal protein S6 kinase (P70s6K1), 3-phosphoinositide-dependent protein kinase 1 (PDK1), phosphorylase kinase (PHK), protein kinase A (PKA), protein kinase B (PKB, also called Akt), protein kinase C (PKCa), p38-regulated/activated kinase (PRAK), Rho-dependent protein kinase (ROCK-II), stress-activated protein kinase 2a, 2b, 3 and 4 (SAPK-2A or p38, SAPK-2b or p38β2, SAPK3 or p38γ, SAPK4 or p38δ, respectively), and serum- and glucocorticoid-induced kinase (SGK). Compound activity was grouped into categories of weak (<50%), moderate (50–75%) and strong inhibition (>75%).

[1] = target: c-Jun N-terminal kinase (JNK) (Homo sapiens, UniProt P45983); assay: Panel of protein kinases: JNK; details: method of Davies et al.
c-Jun N-terminal kinase (JNK), sequence (P45983 whole entry): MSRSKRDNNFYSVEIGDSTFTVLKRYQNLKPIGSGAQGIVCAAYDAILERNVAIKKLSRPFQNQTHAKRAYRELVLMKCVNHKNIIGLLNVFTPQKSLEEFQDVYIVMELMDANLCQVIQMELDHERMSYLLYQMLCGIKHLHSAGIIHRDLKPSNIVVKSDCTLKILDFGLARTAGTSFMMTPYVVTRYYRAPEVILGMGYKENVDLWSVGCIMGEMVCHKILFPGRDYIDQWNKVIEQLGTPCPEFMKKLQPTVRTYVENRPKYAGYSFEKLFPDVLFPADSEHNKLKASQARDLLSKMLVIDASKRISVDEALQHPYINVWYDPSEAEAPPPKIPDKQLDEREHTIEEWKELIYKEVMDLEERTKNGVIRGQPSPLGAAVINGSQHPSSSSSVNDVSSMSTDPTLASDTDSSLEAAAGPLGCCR
Description: as §1

lymphocyte kinase (LCK) = lymphocyte kinase (LCK) (Homo sapiens, UniProt P06239); assay: Panel of protein kinases: LCK; details: method of Davies et al.
lymphocyte kinase (LCK), sequence (P06239 whole entry, species assumed): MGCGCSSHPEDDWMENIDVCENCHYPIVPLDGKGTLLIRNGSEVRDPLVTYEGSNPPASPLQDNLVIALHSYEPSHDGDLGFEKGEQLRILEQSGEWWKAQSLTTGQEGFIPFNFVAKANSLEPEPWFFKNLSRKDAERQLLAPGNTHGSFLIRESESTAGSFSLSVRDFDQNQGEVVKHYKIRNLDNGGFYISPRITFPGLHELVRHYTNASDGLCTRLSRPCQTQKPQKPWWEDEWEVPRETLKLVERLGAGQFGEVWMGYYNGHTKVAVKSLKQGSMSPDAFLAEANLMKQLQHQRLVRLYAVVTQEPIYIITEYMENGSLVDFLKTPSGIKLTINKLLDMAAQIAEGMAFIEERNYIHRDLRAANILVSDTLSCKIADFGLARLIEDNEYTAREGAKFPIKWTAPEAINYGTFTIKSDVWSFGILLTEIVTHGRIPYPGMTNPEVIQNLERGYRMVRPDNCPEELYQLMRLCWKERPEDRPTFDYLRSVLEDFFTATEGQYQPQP
Description: as §1

[2] = target: MAPK kinase (MKK1, also called MEK) (Homo sapiens, UniProt Q02750); assay: Panel of protein kinases: MKK1; details: method of Davies et al.
MAPK kinase (MKK1, also called MEK), sequence (Q02750 whole entry): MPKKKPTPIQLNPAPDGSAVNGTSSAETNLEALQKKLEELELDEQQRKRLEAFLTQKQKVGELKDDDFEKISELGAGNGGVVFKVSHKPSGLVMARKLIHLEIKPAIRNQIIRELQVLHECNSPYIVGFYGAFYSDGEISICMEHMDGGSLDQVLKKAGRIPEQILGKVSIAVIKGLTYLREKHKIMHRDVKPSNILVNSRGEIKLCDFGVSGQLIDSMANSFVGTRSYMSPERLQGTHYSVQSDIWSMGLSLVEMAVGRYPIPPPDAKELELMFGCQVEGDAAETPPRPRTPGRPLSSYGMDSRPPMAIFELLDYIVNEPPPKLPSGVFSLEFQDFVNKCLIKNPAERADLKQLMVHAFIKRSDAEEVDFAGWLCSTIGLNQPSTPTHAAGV
Description: as §1

[3] = target: T2, 3-phosphoinositide-dependent protein kinase 1 (PDK1) (Homo sapiens, UniProt O15530); assay: Panel of protein kinases: PDK1; details: method of Davies et al.
T2 sequence (O15530 1-556): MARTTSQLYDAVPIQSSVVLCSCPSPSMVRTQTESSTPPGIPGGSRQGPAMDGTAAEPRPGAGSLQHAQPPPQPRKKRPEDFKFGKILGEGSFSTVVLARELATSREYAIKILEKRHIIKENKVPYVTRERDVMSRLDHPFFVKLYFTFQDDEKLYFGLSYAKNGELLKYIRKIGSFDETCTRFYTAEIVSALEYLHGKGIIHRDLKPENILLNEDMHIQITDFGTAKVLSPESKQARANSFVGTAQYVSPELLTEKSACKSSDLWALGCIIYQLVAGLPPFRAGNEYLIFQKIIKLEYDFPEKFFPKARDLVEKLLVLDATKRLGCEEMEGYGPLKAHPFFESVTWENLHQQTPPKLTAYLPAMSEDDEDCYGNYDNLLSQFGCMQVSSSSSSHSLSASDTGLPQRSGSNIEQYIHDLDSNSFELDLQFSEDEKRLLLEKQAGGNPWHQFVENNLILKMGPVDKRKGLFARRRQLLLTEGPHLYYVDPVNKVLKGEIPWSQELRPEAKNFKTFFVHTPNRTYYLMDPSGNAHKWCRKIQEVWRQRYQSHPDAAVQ
Description: as §1

[4] = target: T3, stress-activated protein kinase 3 (SAPK3 or p38γ) (Homo sapiens, UniProt P53778); assay: Panel of protein kinases: SAPK3; details: method of Davies et al.
T3 sequence (P53778 1-367): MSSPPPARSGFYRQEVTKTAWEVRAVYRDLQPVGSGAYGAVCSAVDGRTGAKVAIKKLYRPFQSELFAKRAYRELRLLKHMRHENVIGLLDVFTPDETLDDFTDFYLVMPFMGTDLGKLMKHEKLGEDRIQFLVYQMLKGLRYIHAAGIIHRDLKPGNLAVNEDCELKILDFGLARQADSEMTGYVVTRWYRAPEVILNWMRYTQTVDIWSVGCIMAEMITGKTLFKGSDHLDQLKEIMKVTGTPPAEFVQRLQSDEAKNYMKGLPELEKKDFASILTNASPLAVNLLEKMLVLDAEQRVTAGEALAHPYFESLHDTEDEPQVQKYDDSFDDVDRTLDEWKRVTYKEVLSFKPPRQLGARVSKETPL
Description: as §1

Row | SMILES | Ki (CDK2/Cyclin A) | Kinase CDK2/A inhibition (CDK2/A) | Kinase JNK inhibition [1] | Kinase LCK inhibition (lymphocyte kinase (LCK)) | Kinase MKK1 inhibition [2] | Kinase PDK1 inhibition [3] | Kinase SAPK3 inhibition [4]
1 | CCNCc1cncc(-c2ccc3[nH]nc(-c4nc5ccccc5[nH]4)c3c2)c1C [A] | 520 pM | ++ (Strong inhibition >75%) | − (Weak inhibition <50%) | ++ (Strong inhibition >75%) | ++ (Strong inhibition >75%) | + (Moderate inhibition 50–75%) | − (Weak inhibition <50%)
2 | CCNCc1cncc(-c2ccc3[nH]nc(-c4nc5c(C(=O)NC)cccc5[nH]4)c3c2)c1C [B] | 250 pM | ++ (Strong inhibition >75%) | − (Weak inhibition <50%) | ++ (Strong inhibition >75%) | + (Moderate inhibition 50–75%) | − (Weak inhibition <50%) | − (Weak inhibition <50%)
3 | CCNCc1cncc(-c2ccc3[nH]nc(-c4nc5c(SC)cccc5[nH]4)c3c2)c1C [C] | 800 pM | ++ (Strong inhibition >75%) | − (Weak inhibition <50%) | + (Moderate inhibition 50–75%) | + (Moderate inhibition 50–75%) | − (Weak inhibition <50%) | − (Weak inhibition <50%)
4 | CCNCc1cncc(-c2ccc3[nH]nc(-c4nc5c(NC(C)=O)cccc5[nH]4)c3c2)c1C [D] | 2400 pM | ++ (Strong inhibition >75%) | − (Weak inhibition <50%) | − (Weak inhibition <50%) | + (Moderate inhibition 50–75%) | − (Weak inhibition <50%) | − (Weak inhibition <50%)
5 | CCNCc1cncc(-c2ccc3[nH]nc(-c4nc5c(F)cc(F)cc5[nH]4)c3c2)c1C [Example 1, {5-[3-(4,6-Difluoro-1H-benzoimidazol-2-yl)-1H-indazol-5-yl]-4-methyl-pyridin-3-ylmethyl}-ethyl-amine] | 780 pM | ++ (Strong inhibition >75%) | − (Weak inhibition <50%) | + (Moderate inhibition 50–75%) | − (Weak inhibition <50%) | − (Weak inhibition <50%) | − (Weak inhibition <50%)
6 | CCNCc1cncc(-c2ccc3[nH]nc(-c4nc5cc(F)ccc5[nH]4)c3c2)c1C [Example 2, Ethyl-{5-[3-(5-fluoro-1H-benzoimidazol-2-yl)-1H-indazol-5-yl]-4-methyl-pyridin-3-ylmethyl}-amine] | 470 pM | ++ (Strong inhibition >75%) | − (Weak inhibition <50%) | + (Moderate inhibition 50–75%) | − (Weak inhibition <50%) | − (Weak inhibition <50%) | − (Weak inhibition <50%)
